Experimental data reported in publication PMC8261488, “Contraceptive progestins with androgenic properties stimulate breast epithelial cell proliferation” (EMBO Molecular Medicine, 2021).
Values joined by “and” are separate entries in the source; they are usually repeats but may differ in a detail not shown here. Identical values can stand only once.

How the values were obtained:
Rankl [1] = experiment: Rankl transcript levels by RT-PCR in mouse mammary organoids stimulated ex vivo; type: cell-based; settings: for Rankl transcript levels over vehicle-treated control: BalbC females, 6 h of stimulation
Procedure: (§1) Next, we stimulated mouse mammary organoids derived from several BalbC females with R5020 or different progestins (Fig 1A). […] No significant change in Rankl and Wnt4 transcript levels was detected during the first 2 h (Appendix Fig S1D). By 6 h of R5020 stimulation, Rankl and Wnt4 transcript levels increased 22.4 and 5.8‐fold over the vehicle‐treated control, respectively.
(§2) Animal experiments were performed in accordance with protocol approved by the Service de la Consommation et des Affaires vétérinaires of Canton de Vaud (VD 1865.3, VD 1865.4). NOD. Cg‐Prkdc^scid Il2rg^tm1Wjl/SzJ mice (Charles River), BalbC, and C57Bl6 breeders were purchased from Jackson Laboratories. Mammary glands were isolated from 18‐ to 35‐week‐old mice, lymph nodes removed, minced with surgical blades, and digested in DMEM/F12, 1% penicillin/streptomycin B with collagenase A 0.25 mg/ml (Roche). […] Fat was removed, and pellet containing organoids washed with phosphate‐buffered saline (PBS), resuspended 5 min in 3 ml red cell blood lysis buffer and washed twice with PBS.
(§3) Human breast microstructures and mouse organoids were homogenized in Trizol (Invitrogen). Aqueous phase containing RNA was chloroform extracted and processed with miRNeasy extraction kit (Qiagen). cDNA was synthesized using random p(dN)6 primers (Roche) and MMLV reverse transcriptase (Invitrogen). SYBR Green PCR Core Reagent System (Qiagen) was used for semi‐quantitative real time (RT‐PCR) using the following primers.

Wnt4 [2] = experiment: Wnt4 transcript levels by RT-PCR in mouse mammary organoids stimulated ex vivo; type: cell-based; settings: for Wnt4 transcript levels over vehicle-treated control: BalbC females, 6 h of stimulation
Procedure: as §1, §2, §3

[3] = test system: endogenous hormone levels in mice; experiment: Endogenous steroid hormone plasma levels in treated host mice by LC-MS; type: in vivo, mouse; settings: xenografted NSG females with pellets
Source text: Next, we assessed whether progesterone and progestins differentially affected endogenous hormone levels in mice. Plasma 17‐β‐estradiol levels were not affected by any of the treatments (Fig 4H). […] Plasma testosterone levels were not altered by any treatment with the exception of DSP, which decreased them (Fig 4H). Thus, prolonged exposures to progestins differentially affect endogenous progesterone plasma levels and DSP decreases testosterone plasma levels in host mice.

KLK3 = KLK3 mRNA in xenografted HBECs by RT-PCR with human-specific primers; type: in vivo; settings: 21 days pellets (Fig 5M)
Source text: Consistent with AR and PR sharing a common hormone response element (Claessens et al, 1996), KLK3 was induced upon progestin stimulation. […] This is in agreement with previous findings that KLK3 expression is under the control of both androgens and progestins in T47D cells (Zarghami et al, 1997).
(§4) Next, we sought for a readout of in vivo cell proliferation different from radiance. […] Given that MKI67 expression could replace the luciferase measurements as a readout, we used a modified experimental setup for a second round of experiments. We derived HBECs from viably frozen mammoplasty samples (Appendix Table S3) and engrafted them to different mammary glands of NSG females without viral infection. Four months later, the 24 recipient females, each engrafted with 5 different mammoplasties received pellets containing either vehicle, progesterone, or 1 of 6 progestins for 21 days. At sacrifice, xenografted glands were histologically sectioned and cell proliferation was quantified using co‐IF with anti‐MKI67 and anti‐hECAD antibodies. For one of the mammoplasties, we were able to obtain measurements for all experimental conditions (Fig 5I). […] For the remaining mammoplasties, between 3 and 8 different experimental conditions were successfully quantified (Appendix Table S4). […] CPA (P < 0.0001) decreased proliferation, whereas CMA and DSP had no effect (Fig 5K). As AR signaling increases AR protein levels, we performed co‐IF for AR and hECAD as another means to assess AR signaling activity.
as §3

HBECs [4] = experiment: MKI67/Ki67 expression in xenografted HBECs; type: in vivo, human; settings: 21 days pellets; for cell proliferation (KI67 and hECAD double+ cells), overall analysis: HBECs from 11 different patients; for cell proliferation (KI67 and hECAD double+ cells): one mammoplasty (M310)
Source text: as §4
Tissues were fixed for 2 h at room temperature in 4% paraformaldehyde and paraffin‐embedded. Dewaxed and rehydrated paraffin sections were pretreated in 10 mM Na citrate (pH 6.0) at 95° for 20 min. Blocking was performed with 1% BSA for 60 min. Primary antibodies used were as follows: Ki67 (rabbit α‐Ki67, clone Sp6, Spring Amsbio, dilution 1:200), ER (rabbit α‐ER, clone Sp1, Zytomed RTU), PR (rabbit α‐PR, clone 1E2, Ventana RTU), AR (rabbit α‐AR, clone SP107, Thermo Fisher, diluted 1:200), CK7 (rabbit α‐CK7, clone Sp52, Abcam, diluted 1:500), CK19 (mouse KS19.2 (Z105.6), American Research Products Inc. (diluted 1:50), and mouse α‐ECAD (clone G‐10, sc‐8426, diluted 1:100). For IHC, chromogenic revelation was performed with ChromoMap DAB kit (Roche Diagnostics, Switzerland) and sections were counterstained with Mayer’s hematoxylin. For fluorescence microscopy, nuclei were counterstained with DAPI (Sigma). IHC for ER, PR, and AR was performed on Discovery Ventana ULTRA (44). IHC images were acquired on Leica DM 2000 with Leica DFC450 C camera. IF images were acquired on Zeiss LSM700 confocal microscope. Slides were scanned with Olympus VS120‐L100 slide scanner with 20×/0.75 objective and Pike F505 C Color camera. Images were loaded into QuPath using the BioFormats extension (Bankhead et al, 2017).

human breast epithelium = settings: female, mouse, in vivo, 8 months
Procedure: All the engrafted glands were processed for histological analysis and H&E stained.
(§7) Mice were anesthetized by intraperitoneal injection with 10 mg/kg xylazine and 90 mg/kg ketamine (Graeub) and injected intraductally with 10 μl cell suspension per gland. Bioluminescence imaging was performed as described (Sflomos et al, 2016). After 3–10 weeks, when bioluminescence from individual glands reached 10^7 total flux (p/s/cm2/sr), animals were assigned to different treatment groups and hormone pellets implanted subcutaneously. Enzalutamide (Selleckchem, Catalog No. S1250) dissolved in 15% DMSO in PEG300 was injected intraperitoneally 3 times/week at 30 mg/kg.

AR = test system: AR; set-up: method as in earlier work; settings: various assays, ref Fuhrmann et al, 1995, Muhn et al, Bouchard, 2005, Mishell, 2008, Schneider et al, 2009, Africander et al, 2011, Louw‐du Toit et al, 2017; cited from earlier work
HBECs [5] = experiment: In vivo growth of intraductal HBEC xenografts measured by radiance; settings: 60 days of treatment, subcutaneous pellets
Source text: To compare the effects of progesterone and different progestins on HBECs in vivo, we infected single cell suspensions obtained from fresh reduction mammoplasty specimens with GFP‐luciferase2‐expressing lentiviruses. The infected cell mixture was grafted intraductally to up to 5 glands of as many recipients as possible. The engraftment and growth of the xenografted cells were monitored weekly by in vivo imaging. When radiance reached > 10E07 on average per mammary gland, 60‐day‐release pellets were implanted subcutaneously, usually within 3–10 weeks after cell injection. At sacrifice, blood was collected and plasma levels of the administered compounds as well as endogenous steroid hormones were determined by liquid chromatography‐mass spectrometry (LC‐MS) (Laszlo et al, 2019).
Next, the in vivo growth of HBEC xenografts stimulated with progesterone or different progestins was analyzed. […] In addition, the fold change radiance of treated versus untreated samples at endpoint was calculated (Fig 5A–C).
as §7
Pellets were prepared by mixing the required amount of part A, MP3745/E81949 and part B, MP3744/E81950 of low consistency silicon elastomer (MED‐4011) and hormone powder to homogeneity. Mix was transferred to a syringe and incubated at 37°C overnight. The silicon‐hormone mass was removed from the syringe and cut to pieces, as described (Duss et al, 2007). The original protocol was adapted for different doses as described below.

Rankl [6] = experiment: Rankl induction by R5020 or LNG in mouse mammary organoids co-treated with AR antagonists; type: cell-based; settings: 6 h
Procedure: (§5) Enzalutamide (100 µM) abrogated Rankl induction by R5020 (P < 0.05) but had no effect on Wnt4 induction (Fig 1H).
(§6) Animal experiments were performed in accordance with protocol approved by the Service de la Consommation et des Affaires vétérinaires of Canton de Vaud (VD 1865.3, VD 1865.4). NOD. Cg‐Prkdc^scid Il2rg^tm1Wjl/SzJ mice (Charles River), BalbC, and C57Bl6 breeders were purchased from Jackson Laboratories. Mammary glands were isolated from 18‐ to 35‐week‐old mice, lymph nodes removed, minced with surgical blades, and digested in DMEM/F12, 1% penicillin/streptomycin B with collagenase A 0.25 mg/ml (Roche). Tissue was concomitantly stimulated with hormones for 1, 2, or 6 h and centrifuged at 652 g for 5 min. Fat was removed, and pellet containing organoids washed with phosphate‐buffered saline (PBS), resuspended 5 min in 3 ml red cell blood lysis buffer and washed twice with PBS.
as §3

Wnt4 [7] = experiment: Wnt4 induction by R5020 or LNG in mouse mammary organoids co-treated with AR antagonists; type: cell-based; settings: antagonist 100 µM, 6 h, C57Bl6-derived organoids
Procedure: as §5, §6, §3

HBECs [8] = experiment: In vivo growth of HBEC xenografts treated with LNG with or without enzalutamide; set-up: species or system human; settings: enzalutamide 30 mg/kg intraperitoneally 3 times/week, the 2 LNG-responsive PDXs
Procedure: Mice were anesthetized by intraperitoneal injection with 10 mg/kg xylazine and 90 mg/kg ketamine (Graeub) and injected intraductally with 10 μl cell suspension per gland. […] After 3–10 weeks, when bioluminescence from individual glands reached 10^7 total flux (p/s/cm2/sr), animals were assigned to different treatment groups and hormone pellets implanted subcutaneously. Enzalutamide (Selleckchem, Catalog No. S1250) dissolved in 15% DMSO in PEG300 was injected intraperitoneally 3 times/week at 30 mg/kg.

[9] = BalbC-derived organoids, 24 h of stimulation
[10] = antagonist 100 µM, C57Bl6-derived organoids

Structure (SMILES) | Rankl transcript levels over vehicle-treated control (Rankl [1]) | Rankl transcript induction (Rankl [1]; [9]) | Rankl transcript induction (Rankl [1]; C57Bl/6 mice, 6 h, 20 nM) | Wnt4 transcript levels over vehicle-treated control (Wnt4 [2]) | Wnt4 transcript induction (Wnt4 [2]; [9]) | Wnt4 transcript induction (Wnt4 [2]; C57Bl/6 mice, 6 h, 20 nM) | endogenous progesterone plasma levels (estrous cycle-related variation) [3] | KLK3 transcripts levels (KLK3) | cell proliferation (KI67 and hECAD double+ cells), overall analysis (HBECs [4]) | cell proliferation (KI67 and hECAD double+ cells) (HBECs [4]) | morphologic changes in xenografts (H&E) (human breast epithelium) | androgenic / anti-androgenic activity (AR) | growth (course of radiance) of engrafted HBECs versus control (HBECs [5]) | relative radiance at endpoint over control (FC) (HBECs [5]) | effect of AR antagonist on Rankl induction (Rankl [6]; antagonist 10 µM, n = 3) | effect of AR antagonist on Rankl induction by LNG (Rankl [6]; [10]) | effect of AR antagonist on Rankl induction by R5020 (Rankl [6]; [10]) | effect of AR antagonist on Wnt4 induction by LNG (Wnt4 [7]) | effect of AR antagonist on Wnt4 induction by R5020 (Wnt4 [7]) | effect of enzalutamide on LNG-induced proliferation (HBECs [8])
C#C[C@]1(O)CC[C@H]2[C@@H]3CCC4=CC(=O)CC[C@@H]4[C@H]3C(=C)C[C@@]21CC [DSG, 3‐ketodesogestrel] | 22.3 fold | 177.2 fold | 15.5 fold | 8.5 fold | 32.2 fold | 4.2 fold | suppressed | increased | increased | significantly increased | 3 or 4 grafts showed diffuse and in some cases marked acinar proliferation | androgenic activity | increased growth | 2 fold and 2.0 fold |  |  |  |  |  | 
C#C[C@]1(O)C=C[C@H]2[C@@H]3CCC4=CC(=O)CC[C@@H]4[C@H]3CC[C@@]21CC [GSN, gestodene] | 18.2 fold | 617.2 fold | 21.5 fold | 4.9 fold | 33.5 fold | 3.6 fold | suppressed | increased | increased | significantly increased | 3 or 4 grafts showed diffuse and in some cases marked acinar proliferation | androgenic activity | increased growth | 2.2 fold |  |  |  |  |  | 
CNC(=O)c1ccc(N2C(=S)N(c3ccc(C#N)c(C(F)(F)F)c3)C(=O)C2(C)C)cc1F [enzalutamide] |  |  |  |  |  |  |  |  |  |  |  |  |  |  | failed to reach significance | significantly reduced | abrogated | not affected | no effect | decreased the proliferative effects of LNG
